Reference: PMC12469269, “Investigating SMR Peptide Interactions with Breast Cancer-Associated Proteins” (International Journal of Molecular Sciences, 2025)
“Also recorded” adds a separate entry of the source.

Assays:
[1] = system: exNef-GFP secretion in MDA-MB-231, MCF-7, BT474 BC cells and Jurkat T cells; experiment: Nef-driven exNef-GFP secretion (Figure 3), three BC cell lines and Jurkat T cells; type: cell-based, human
Protocol: Figure 3 Effects of Mortalin-derived peptides on viral Nef-driven exNef secretion. (A) MDA-MB-231, (B) MCF-7, (C) BT474 BC cells, and (D) Jurkat T cells were co-transfected with 1 µg of wild-type Nef-GFP clone and 200 ng of various Mortalin-scanning peptides. The cells were then placed in a 24-well plate and incubated at 37 °C for 24 h before being assayed for extracellular vesicle secretion. Cells were also co-transfected with SMRwt or SMRmut peptides as positive and negative controls, respectively. The amount of GFP fluorescence measured was equivalent to the amount of exNef-GFP in the extracellular media. […] The bar graphs display relative levels of exosome release. In here, asterisks (* p < 0.05, ** p < 0.005, *** p < 0.0005, and **** p < 0.00005) are used to indicate levels of statistical significance. The more asterisks, the stronger the statistical significance. Data represents the mean ± SD from three independent experiments.
Co-transfections of cells with peptides were carried out using Lipofectamine Reagent (Fisher Scientific), following the manufacturer’s protocol. One day prior to transfection, cells were trypsinized and plated at a density of 6.25 × 10^5 cells per well in 2 mL of complete growth medium. […] The cell transfection efficiency was calculated by counting the green, fluorescent cells using a fluorescence microscope.

Mortalin = experiment: SPR competition: SMRwt binding to immobilized Mortalin with Mortalin peptides; set-up: species or system Human; conditions: 20 µM SMRwt + 20 µM Mortalin peptide, 25 °C, HBS-P pH 7.4
Protocol: (§1) Both Vimentin and Mortalin were immobilized as ligands. We used 20 µM of SMRwt alone and 20 µM of Mortalin peptides alone, and their mixtures were used as analytes.
(§2) Figure 9 Competitive binding of SMR and Mortalin peptides to Vimentin and Mortalin proteins. Binding of SMRwt to immobilized Vimentin in the presence and absence of (A) Mortalin peptide #56, (B) Mortalin peptide #61, and (C) Mortalin peptide #62. Binding of SMRwt to immobilized Mortalin in the presence and absence of (D) Mortalin peptide #56, (E) Mortalin peptide #61, and (F) Mortalin peptide #62. SMRwt alone, as well as a mixture of His-tagged Mortalin peptides #56, #61, and #62 were injected as analytes to flow over the immobilized ligand surfaces. […] Vimentin and Mortalin proteins were immobilized as ligands on a CM5 sensor chip using standard amine coupling chemistry.
(§3) SPR experiments were conducted using a Biacore T200 instrument (Cytiva, Marlborough, MA, USA). CM5 sensor chips (Cytiva) were used to immobilize proteins and run subsequent binding assays at 25 °C. To investigate the direct binding of Nef and SMR peptides to Vimentin and Mortalin and SMR competition studies, both proteins were immobilized as ligands on the active flow cells (FCs) using standard amine coupling chemistry. […] Sensorgrams recorded for kinetics analyses were fitted to a 1:1 binding model using the Biacore T200 evaluation software version 3.2.1. […]

MDA-MB-231 cells = experiment: Tumor exosome secretion, Mortalin scanning peptides (Figure 5B), MDA-MB-231; type: cell-based, human; conditions: MDA-MB-231 exosome experiment
Vimentin = experiment: SPR competition: SMRwt binding to immobilized Vimentin with Mortalin peptides; set-up: species or system Human; conditions: 20 µM SMRwt + 20 µM Mortalin peptide, 25 °C, HBS-P pH 7.4
Protocol: as §1, §2, §3

[2] = target: T1, Recombinant Human Vimentin Protein (Homo sapiens, UniProt P08670); experiment: biochemical; type: binding; conditions: SPR, 25 °C, HBS-P pH 7.4
T1 construct: purchased Novus Biologicals, LLC/R&D Systems 2105-VI-100
T1 sequence (P08670 whole entry): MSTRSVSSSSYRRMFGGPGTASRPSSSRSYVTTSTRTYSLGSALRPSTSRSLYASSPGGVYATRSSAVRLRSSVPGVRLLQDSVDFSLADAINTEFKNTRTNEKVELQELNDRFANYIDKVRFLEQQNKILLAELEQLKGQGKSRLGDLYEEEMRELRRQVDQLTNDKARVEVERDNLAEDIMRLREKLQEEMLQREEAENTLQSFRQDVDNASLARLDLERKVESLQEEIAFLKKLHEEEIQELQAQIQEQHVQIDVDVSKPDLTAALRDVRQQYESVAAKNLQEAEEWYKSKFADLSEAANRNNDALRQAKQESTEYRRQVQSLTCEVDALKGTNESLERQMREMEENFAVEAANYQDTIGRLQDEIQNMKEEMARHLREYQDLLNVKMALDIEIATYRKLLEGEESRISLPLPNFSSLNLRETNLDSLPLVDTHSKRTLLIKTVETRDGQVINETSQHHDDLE
Excerpt: (§4) We conducted SPR experiments to characterize and quantify the direct binding interactions between Nef and SMR peptides (the analytes) and the target proteins, Vimentin and Mortalin (the immobilized ligands). We did so by injecting the analytes at various concentrations over the chip surface with the immobilized ligands.
(§5) Recombinant Human Vimentin Protein, CF (catalog # 2105-VI-100), Recombinant Human GRP75/HSPA9B/Mortalin His Protein (catalog # NBC1-18380), and Recombinant Human HSPA8/HSC71/Hsc70 His Protein (Catalog # NBPI-30278) were purchased from Novus Biologicals, LLC/R&D Systems, Centennial, CO, USA. These proteins were used for SPR.
(§6) SPR experiments were conducted using a Biacore T200 instrument (Cytiva, Marlborough, MA, USA). CM5 sensor chips (Cytiva) were used to immobilize proteins and run subsequent binding assays at 25 °C. To investigate the direct binding of Nef and SMR peptides to Vimentin and Mortalin and SMR competition studies, both proteins were immobilized as ligands on the active flow cells (FCs) using standard amine coupling chemistry. One reference FC was prepared using the same surface chemistry, and no proteins were immobilized onto this reference FC. Vimentin was immobilized to a level of ~2500 RU to 7200 RU in the presence of 4 mM of HCl and Mortalin to a level of ~11,900 RU to 13,200 RU in the presence of 10 mM of sodium acetate buffer at pH 4.5. Analytes were then injected (Nef, SMR peptides, Mortalin peptides, and mixtures of […]). One 20 s pulse of 1:500 H3PO4 (H3PO4:ddH2O) was injected for surface regeneration. To investigate the direct binding of Mortalin peptides to Nef, Nef was immobilized as a ligand to ~450 RU using thiol coupling chemistry. A reference FC was created using a method similar to the one above. Mortalin peptides were then injected as analytes. One 20 s pulse of 1 M NaCl was injected for surface regeneration. HBS-P (10 mM Hepes, pH 7.4; 150 mM NaCl; 0.05% surfactant P20) was used as the immobilization running buffer during the immobilization of all ligands. HBS-P was also used to dilute analytes and as a running buffer during all analyte–ligand binding assays. SPR data used for analysis was both blank (signals due to HBS-P only) and reference-subtracted (signals corresponding to reference FCs). Sensorgrams recorded for kinetics analyses were fitted to a 1:1 binding model using the Biacore T200 evaluation software version 3.2.1. GraphPad Prism version 10.4.0 was used to plot all graphs.

[3] = target: T2, Recombinant Human GRP75/HSPA9B/Mortalin His Protein (Homo sapiens, UniProt P38646); experiment: biochemical; type: binding; conditions: SPR, 25 °C, HBS-P pH 7.4
T2 construct: His; purchased Novus Biologicals, LLC/R&D Systems NBC1-18380
T2 sequence (P38646 47-679): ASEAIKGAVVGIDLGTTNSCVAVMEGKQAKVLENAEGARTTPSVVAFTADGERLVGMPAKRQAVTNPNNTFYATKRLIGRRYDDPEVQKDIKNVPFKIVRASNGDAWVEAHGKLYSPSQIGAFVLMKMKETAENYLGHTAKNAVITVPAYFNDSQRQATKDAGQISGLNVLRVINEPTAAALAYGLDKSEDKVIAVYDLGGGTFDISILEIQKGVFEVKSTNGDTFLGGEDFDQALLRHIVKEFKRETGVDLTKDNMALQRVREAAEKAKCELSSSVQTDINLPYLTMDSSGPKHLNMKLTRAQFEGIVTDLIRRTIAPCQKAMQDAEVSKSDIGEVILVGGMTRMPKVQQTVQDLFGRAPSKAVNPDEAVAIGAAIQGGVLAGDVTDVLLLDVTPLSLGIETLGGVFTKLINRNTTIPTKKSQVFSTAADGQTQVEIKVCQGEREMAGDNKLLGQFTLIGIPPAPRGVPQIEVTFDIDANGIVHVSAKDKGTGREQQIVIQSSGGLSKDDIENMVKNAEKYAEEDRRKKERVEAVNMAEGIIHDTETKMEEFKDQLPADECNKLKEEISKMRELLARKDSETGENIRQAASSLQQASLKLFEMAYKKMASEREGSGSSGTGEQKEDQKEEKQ
Excerpt: as §4, §5, §6

Substance	effect on Nef function (exNef-GFP secretion), in words ([1]; 1 µg Nef-GFP + 200 ng peptide, co-transfected, 37 °C, 24 h, GFP fluorescence, three independent experiments)	interaction with NefSMR domain / Nef / SMRwt peptide, in words ([1]; inferred from exNef secretion (Figures 2 and 3))	inhibition of SMRwt–Mortalin binding, in words (Mortalin; listed as Mortalin #61)	inhibition of SMRwt–Mortalin binding, in words (Mortalin; listed as Mortalin peptide #61)	cluster formation (MDA-MB-231 cells)	inhibition of SMRwt–Vimentin binding, in words (Vimentin; listed as Mortalin #61)	inhibition of SMRwt–Vimentin binding, in words (Vimentin; listed as Mortalin peptide #61)	binding response to Vimentin, in words [2]	binding to Mortalin, in words [3]
DQLPADECNKLKEEISKMRE [#61, Mortalin scanning peptide 61]	significant reduction in exNef-GFP secretion; also recorded: inhibit Nef function	bind HIV-1 Nef and the SMRwt peptide; also recorded: can interact with the NefSMR domain; also recorded: bound the SMR domain and effectively inhibited Nef activity	effectively compete with SMRwt to block its interaction with the Mortalin or Vimentin protein	inhibited SMRwt binding to both Mortalin and Vimentin; also recorded: completely blocks the 20 µM SMRwt from binding to both Vimentin and Mortalin; also recorded: complete inhibition	formed small clusters	effectively compete with SMRwt to block its interaction with the Mortalin or Vimentin protein	inhibited SMRwt binding to both Mortalin and Vimentin; also recorded: completely blocks the 20 µM SMRwt from binding to both Vimentin and Mortalin; also recorded: completely inhibited complex formation between SMRwt and Vimentin		
^66Ala-Gly-Phe-Pro-Val^70 [SMRmut, 5-mer negative control, Val66 changed to Ala]								did not produce a meaningful positive binding response to Vimentin and Mortalin	did not produce a meaningful positive binding response to Vimentin and Mortalin; also recorded: does not bind to the Mortalin protein
